Common to all, as to type: cell-based, human
Data set [1] deals with hMLH1-deficient RKO cells. Kind of data set: ROS level, H2DCFDA probe, MMR-deficient RKO. The note with it: 1 h of exposure, vs control. On the procedure:
Then, we confirmed whether the induction of cellular stress by 20d is related to MMR deficiency by exposing MMR-deficient and MMR-proficient cells to the compound for different times and measuring the ROS levels. Our results indicated a greater increase in the level of ROS after 1 h of exposure in 20d-treated MMR-deficient cells than in MMR-proficient cells (54.71 ± 2.70% and 22.27 ± 1.7%, respectively), in comparison to control (Fig. 7).
The […] ROS levels were determined using an H2DCFDA (2′,7′-dichlorodihydrofluorescein diacetate) probe (Thermo Fisher) following the manufacturer’s protocol. […] DMSO (1%, Merck) and 250 μM H2O2 were used as a negative and positive control, respectively. NAC (500 μM, Sigma-Aldrich) was used as an ROS scavenger to confirm the ROS activity. After treatment with 20d and 19b, cells were incubated with H2DCFDA at 37 °C for 30 min. Subsequently, cells were harvested by trypsinization, rinsed with PBS, and stained with 7-AAD (Thermo Fisher). Finally, the stained cells were analyzed by flow cytometry using a Guava easyCyte 8 cell sorter (Merck Millipore) and FlowJo v10 software.

The subject of data set [2] is HCT-116 cells. Kind of data set: MTT cell viability assay, HCT-116. The note with it: for IC50: MTT, 72 h, IC50 ± SD. Here is the method: To evaluate the effects of the newly synthesized tetrahydroquinolin-2(1H)-one derivatives on cell viability, we treated human colon cancer cells HCT-116, human breast cancer cells MCF-7, and human non-small cell lung cancer cells A-549 with different concentrations of the compounds for 72 h. After incubation, the MTT (3-(4,5-dimethylthiazol-2-yl)-2,5-diphenyltetrazolium bromide) assay was performed and the cytotoxic potency of compounds (expressed in IC50) on the cells was determined in comparison to control cells treated with 1% of dimethyl sulfoxide (DMSO) (Table 1). […] We also compared the activity of 20d and 19b to the reference control drug Cisplatin, which is widely used in chemotherapy.
A-549 (CCL-185) and MCF-7 ([…]) cells were cultured in RPMI-1640 medium, while HCT-116 (CVCL-427), (hMLH1)-deficient (MMR^–) and hMLH1-proficient (MMR^+) RKO cells were cultured in McCoy’s 5A medium. The culture media were supplemented with 10% fetal bovine serum, 2 mM L-glutamine, and antibiotics (penicillin 62.6 µg/ml and streptomycin 40 µg/ml). Cultivation of cell lines was carried out at 37 °C under a humidified atmosphere containing 5% CO2, and the cultures were routinely screened for Mycoplasma contamination. A-549, MCF-7, and HCT-116 cells were obtained from American Type Culture Collection (ATCC), while RKO colon carcinoma cells were a kind gift of Dr Timothy Kinsella (Brown University, USA).
The viability of cells was determined in response to the newly synthesized compounds using the MTT (Sigma-Aldrich) assay. Briefly, cells were seeded into 96-well plates and allowed to attach overnight. Then, cells were exposed to various concentrations of compounds for 24, 48 or 72 h. Negative controls were treated with the same amount of DMSO solvent (1%). After treatment, the MTT solution (0.4 mg/ml) was added to each well and allowed to react with cells for 2–3 h at 37 °C. Next, the medium was removed, the formazan product formed was dissolved in 100 μl of DMSO, and the absorbance was determined at 540 nm using an ASYS UVM340 microplate reader (Biochrom Ltd.). The IC50 value, which represents the concentration of the compound required to inhibit cell growth by 50% compared to vehicle, was calculated using GraphPad Prism 8 software based on the curves plotting survival against dose averaged from at least three independent experiments.
(Tetrazolium dyes change colour on reduction, which living cells bring about.)

Data set [3] relates to HCT-116 cells. Kind of data set: Acridine orange staining of acidic vesicular organelles. Conditions: HCT-116, p < 0.01. The source says: Then, to elucidate whether compound 20d can act as an autophagy modulator, we stained cells with acridine orange (AO), a lysotropic agent. AO is a weak base that can permeate the cell membrane in an uncharged state emitting green fluorescence. After protonation, AO forms aggregates in acidic vesicular organelles (AVOs), emitting red fluorescence. […] One of the hallmarks of autophagy is the conjugation of LC3-I with phosphatidylethanolamine, followed by its conversion to autophagosome-associated form LC3-II[39]. Taking this into account, we evaluated the expression of LC3I/II in colon cancer cells after exposure to 20d. Furthermore, we studied the expression of LAMP-1, a well-known lysosomal marker. […] This observation was also confirmed by increased punctate cytosolic LC3 fluorescence intensity when HCT-116 cells were assessed by confocal microscopy (Fig. 8e,g). […] It has been shown that multiple signaling pathways are involved in the modulation of autophagy, including the PI3K/AKT/mTOR pathway, which is especially involved in the stage of autophagosome elongation[41],[42]. In this study, we investigated whether 20d-induced autophagy in HCT-116 cells is related to PI3K/AKT/mTOR signaling. […] This proves that 20d induced autophagy cell death in HCT-116 cells by interfering with the PI3K/AKT/mTOR signaling pathway.

The subject of data set [4] is HCT-116 cells. Kind of data set: Western blot protein expression in HCT-116 cells. On the procedure:
HCT-116 cells were seeded into 60-mm Petri dishes at a density of 1.5 × 10^6 cells per dish and incubated overnight. […] After treatment, cells were lysed in Laemmli buffer with a protease and phosphatase inhibitors cocktail (Roche), followed by sonification The lysate was cleared by centrifuging at 16,000×g for 15 min at 12 °C. The supernatant was collected, and the extract was quantified for protein using the DC Protein Assay (Bio-Rad). Proteins were resolved by 10% or 12% sodium dodecyl sulfate–polyacrylamide gel electrophoresis and transferred to polyvinylidene difluoride membranes (Bio-Rad). Membranes were blocked using 5% (w/v) bovine serum albumin (Sigma-Aldrich) in 1× TBST (pH 7.4 and 0.1% Tween-20) for 1 h at room temperature and subsequently incubated overnight with primary antibodies at 4 °C. The blots were washed thrice with TBST and then incubated with horseradish peroxidase-conjugated antibodies for 1 h at room temperature. After washing, the membranes were evaluated for detecting the protein bands using enhanced chemiluminescence detection reagent kit (Thermo Fisher) and ChemiDoc XRS + Imaging System (Bio-Rad). The band intensity was measured using ImageLab 5.2 software (Bio-Rad).
A general note: Immunoblotting shows a protein as a band on a membrane.

Here are results for 1 molecule from article PMC9200803, “Design, synthesis, and biological evaluation of tetrahydroquinolinones and tetrahydroquinolines with anticancer activity” (Scientific Reports, 2022).

The IC50 is the point on the concentration scale where inhibition reaches its midpoint. Read a low IC50 as greater potency in that assay. For `O=C(Nc1cccc(F)c1)OC1CCCc2c(-c3ccccc3)cc(=O)[nH]c21` (centres unmarked) [Compound 20d, (2-oxo-4-phenyl-5,6,7,8-tetrahydroquinolin-8-yl) N-(3-fluorophenyl)carbamate], the “increase in the level of ROS” value in data set [1] turned out to be 54.71 ± 2.70%. Further, the “cytotoxic effect after 24 h and 48 h exposure” value in the data set with HCT-116 cells [2] (HCT-116, 10 and 20 µM) is “slight cytotoxic effect”. For the same molecule, in the data set with HCT-116 cells [2] (Homo sapiens, HCT-116, 72 h), the IC50 is roughly 13 µM. Moreover, inhibition with HCT-116 cells [2] was half-maximal at 12 ± 0.57 µM (IC50). Further, the “increase in red fluorescence (AVOs) in comparison to vehicle” value in the data set with HCT-116 cells [3] amounted to 1.9 fold. For the same molecule, in the data set with HCT-116 cells [4] (HCT-116), the “expression of LAMP-1 protein” value is reported as “time-dependent increase”, the expression of vimentin result is given as “significantly altered”, the “level of phospho-AKT (Ser473)” value is on record as “significantly reduced” and the “level of phospho-mTOR (Ser2448)” value is recorded as “significantly reduced”. In addition, the “expression of p-γ-H2AX” value in the data set on HCT-116 cells [4] (HCT-116, 24–72 h, immunoblot and immunofluorescence) is “significantly increased”. Further, the “cyclin D1 expression” value with HCT-116 cells [4] (HCT-116, 72 h, vs DMSO) is reported as “slight inhibition”. In the data set on HCT-116 cells [4] (HCT-116, even after 24 h), the β-catenin entry is on record as “caused the cleavage of β-catenin”. The “levels of LC3-II” value in the data set with HCT-116 cells [4] (HCT-116, vs control) was “higher”. In the data set on HCT-116 cells [4] (HCT-116, vs control, p < 0.001), the “expression of p21” value is recorded as “markedly higher”, the “expression of p27” value is “markedly higher” and the “expression of p53” value was “markedly higher”. Further, the expression of c-myc entry in the data set on HCT-116 cells [4] (HCT-116, vs vehicle) is “downregulated”.
